Experimental data reported in PubChem BioAssay AID1963963 (Molecular Pharmacology Branch, DTP, NCI, 2024).

Tested on: 958667-338-R-J2-PDC tumor spheroids viability
Assay: Anticancer human tumor 958667-338-R-J2-PDC patient-derived colon adenocarcinoma cell line growth inhibition [PI3K]
Conditions: spheroids with HUVEC and MSC; for IC50: curve of first compound; for viability, T/C: stronger effect = lower value
Description: Combinatorial screen of targeted agents with the PI3K inhibitors inavolisib, alpelisib, duvelisib, and copanlisib in multi-cell type tumor spheroids
A high-throughput screen of multi-cell type tumor spheroids was designed to identify active combinations of targeted small molecules and PI3K pathway inhibitors. Complex spheroids include a stromal component modeled by human endothelial cells (HUVEC) and fibroblasts modeled by human mesenchymal stem cells (MSCs). The concentration ranges selected for each drug and investigational agent were based upon clinically achievable concentrations if the clinical Cmax of the agent was known.
Compounds. The drugs and investigational agents: inavolisib (NSC800729), alpelisib (NSC765974), duvelisib (NSC772469), copanlisib (NSC816437), ipatasertib (NSC767898), afuresertib (NSC778305), talazoparib (NSC767125), sapanisertib (NSC764658), selumetinib (NSC741078), tovorafenib (DAY101, NSC766906), vemurafenib (NSC761431), ravoxertinib (NSC781343), sotorasib (NSC818433), MRTX1133 (NSC 836407), abemaciclib (NSC 768073), palbociclib (NSC758247), venetoclax (NSC 766270), SY5609 (NSC837396), enzalutamide (NSC755605), and darolutamide (NSC825331), were obtained from the National Cancer Institute (NCI) Developmental Therapeutics Program Chemical Repository. The FDA-approved anticancer drug set is available from the NCI Developmental Therapeutics Program. […] The stock solutions were prepared in dimethyl sulfoxide (DMSO, Sigma-Aldrich, St. Louis, MO, cat. D2650) at 800-fold the tested concentration and stored at -70 degrees C prior to their use. All drugs and investigational agents were tested over a range starting from a high concentration at or near the clinical Cmax and decreasing in half-log increments. If the clinical Cmax for an agent had not been determined, the highest concentration tested was 10 microM.
Cell Culture. All cells were maintained in an incubator at 37 degrees C and 5% CO2 with 95% humidity. The PDC lines were cultured according to standard operating procedures established by the NCI PDMR (https://pdmr.cancer.gov/sops/default.htm). All PDCs were thawed and cultured in Matrigel-coated flasks prepared with a working solution of 1X Ham's F-12 nutrient mix, without supplementation (Invitrogen, Waltham, MA, cat. 11765054), 100 U/mL penicillin-streptomycin (Invitrogen, cat. 15140122), and 2.5% Matrigel (Corning Inc., Corning, NY, cat. 354248) for the first three passages. The 354836-022-R-J1-PDC, 475296-252-R-J1-PDC, and 997726-040-R-J2-PDC lines were cultured in 6A media, which includes advanced DMEM/F-12 (Thermo Fisher Scientific, cat. 12634028), 10 mM HEPES (Thermo Fisher Scientific, cat. 15630080), 1X GlutaMAX supplement (Thermo Fisher Scientific, cat. 35050061), 0.1 mg/mL primocin (InvivoGen, San Diego, CA, cat. ant-pm-2), 10% defined fetal bovine serum, heat inactivated (HyClone Laboratories Inc., Logan, UT, cat. SH30070.03HI), 50% L-WRN conditioned media (ATCC, cat. CRL-3276), 1.25 mM N-Acetyl-L-cysteine (Sigma-Aldrich, cat. A9165), 10 mM nicotinamide (Sigma-Aldrich, cat. N0636), 1X B-27 supplement (Thermo Fisher Scientific, cat. 17504044), 1X N-2 supplement (Thermo Fisher Scientific, cat. 17502048), and 10 microM Y-27632 dihydrochloride (Tocris Bioscience, Bristol, United Kingdom, cat. 1254). The 624824-186-R-J2-PDC line was cultured in 6C/Colon 1B media, which includes all 6A media components plus 50 ng/mL human EGF recombinant protein (Thermo Fisher Scientific, cat. PHG0311). […]

[1] = second compound 0.00316 µM, first compound 0.0316 µM
[2] = second compound 0.00316 µM, first compound 0.1 µM
[3] = second compound 0.01 µM, first compound 0.0316 µM
[4] = second compound 0.01 µM, first compound 0.1 µM
[5] = second compound 0.0316 µM, first compound 0.0316 µM
[6] = second compound 0.0316 µM, first compound 0.1 µM
[7] = second compound 0.1 µM, first compound 0.0316 µM
[8] = second compound 0.1 µM, first compound 0.1 µM
[9] = second compound 0.316 µM, first compound 0.0316 µM
[10] = second compound 0.316 µM, first compound 0.1 µM
[11] = second compound 1 µM, first compound 0.0316 µM
[12] = second compound 1 µM, first compound 0.1 µM
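Note: spheroids exposed to compounds for seven days before readout.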

In the case of CC(=O)c1c(C)c2cnc(Nc3ccc(N4CCNCC4)cn3)nc2n(C2CCCC2)c1=O + CC(Nc1ccc2c(c1)OCCn1cc(N3C(=O)OCC3C(F)F)nc1-2)C(N)=O, the IC50 (second compound 0.00316 µM) is reported as over 100 nM, the IC50 (second compound 0.01 µM) is reported as over 100 nM and the IC50 (second compound 0.0316 µM) is reported as over 100 nM. It also gave an IC50 (second compound 0.1 µM) of over 100 nM, an IC50 (second compound 0.316 µM) of over 100 nM and an IC50 (second compound 1 µM) of 18 nM. It also gave a viability, T/C (second compound 0.00316 µM, first compound 0.000316 µM) of 96.6%, a viability, T/C (second compound 0.00316 µM, first compound 0.001 µM) of 107% and a viability, T/C (second compound 0.00316 µM, first compound 0.00316 µM) of 101%. The viability, T/C (second compound 0.00316 µM, first compound 0.01 µM) was 104%, the viability, T/C [1] was 99.1% and the viability, T/C [2] was 84.3%. It also gave a viability, T/C (second compound 0.01 µM, first compound 0.000316 µM) of 107%, a viability, T/C (second compound 0.01 µM, first compound 0.001 µM) of 95.7% and a viability, T/C (second compound 0.01 µM, first compound 0.00316 µM) of 105%. The viability, T/C (second compound 0.01 µM, first compound 0.01 µM) was 102%, the viability, T/C [3] was 107% and the viability, T/C [4] was 83.8%. The viability, T/C (second compound 0.0316 µM, first compound 0.000316 µM) was 97.3%, the viability, T/C (second compound 0.0316 µM, first compound 0.001 µM) was 73.8% and the viability, T/C (second compound 0.0316 µM, first compound 0.00316 µM) was 78.3%. It also gave a viability, T/C (second compound 0.0316 µM, first compound 0.01 µM) of 90.2%, a viability, T/C [5] of 98% and a viability, T/C [6] of 85.3%. The viability, T/C (second compound 0.1 µM, first compound 0.000316 µM) was 78.2%, the viability, T/C (second compound 0.1 µM, first compound 0.001 µM) was 87.4% and the viability, T/C (second compound 0.1 µM, first compound 0.00316 µM) was 89.2%. It also gave a viability, T/C (second compound 0.1 µM, first compound 0.01 µM) of 75.2%, a viability, T/C [7] of 92.3% and a viability, T/C [8] of 58.2%. The viability, T/C (second compound 0.316 µM, first compound 0.000316 µM) was 61.9%, the viability, T/C (second compound 0.316 µM, first compound 0.001 µM) was 73% and the viability, T/C (second compound 0.316 µM, first compound 0.00316 µM) was 62.8%. It also gave a viability, T/C (second compound 0.316 µM, first compound 0.01 µM) of 65.9%, a viability, T/C [9] of 56.9% and a viability, T/C [10] of 67.4%. For the same compound, the viability, T/C (second compound 1 µM, first compound 0.000316 µM) was 64.5%, the viability, T/C (second compound 1 µM, first compound 0.001 µM) was 62.8% and the viability, T/C (second compound 1 µM, first compound 0.00316 µM) was 47.5%. It also gave a viability, T/C (second compound 1 µM, first compound 0.01 µM) of 53.2%, a viability, T/C [11] of 56.6% and a viability, T/C [12] of 37%.

Compound CNC(=O)c1ccc(N2C(=S)N(c3ccc(C#N)c(C(F)(F)F)c3)C(=O)C2(C)C)cc1F + CC(Nc1ccc2c(c1)OCCn1cc(N3C(=O)OCC3C(F)F)nc1-2)C(N)=O has an IC50 (second compound 0.00316 µM) of over 10000 nM, an IC50 (second compound 0.01 µM) of over 10000 nM and an IC50 (second compound 0.0316 µM) of over 10000 nM. The IC50 (second compound 0.1 µM) was over 10000 nM, the IC50 (second compound 0.316 µM) was over 10000 nM and the IC50 (second compound 1 µM) was over 10000 nM. It also gave a viability, T/C [1] of 96.3%, a viability, T/C [2] of 103% and a viability, T/C (second compound 0.00316 µM, first compound 0.316 µM) of 93.4%. It also gave a viability, T/C (second compound 0.00316 µM, first compound 1 µM) of 84.3%, a viability, T/C (second compound 0.00316 µM, first compound 3.16 µM) of 97.1% and a viability, T/C (second compound 0.00316 µM, first compound 10 µM) of 102%. The viability, T/C [3] was 115%, the viability, T/C [4] was 102% and the viability, T/C (second compound 0.01 µM, first compound 0.316 µM) was 80.6%. It also gave a viability, T/C (second compound 0.01 µM, first compound 1 µM) of 97.6%, a viability, T/C (second compound 0.01 µM, first compound 3.16 µM) of 89.9% and a viability, T/C (second compound 0.01 µM, first compound 10 µM) of 95.7%. The viability, T/C [5] was 104%, the viability, T/C [6] was 98.1% and the viability, T/C (second compound 0.0316 µM, first compound 0.316 µM) was 93.6%. For the same compound, the viability, T/C (second compound 0.0316 µM, first compound 1 µM) was 107%, the viability, T/C (second compound 0.0316 µM, first compound 3.16 µM) was 104% and the viability, T/C (second compound 0.0316 µM, first compound 10 µM) was 94.6%. It also gave a viability, T/C [7] of 84.5%, a viability, T/C [8] of 57.5% and a viability, T/C (second compound 0.1 µM, first compound 0.316 µM) of 90%. The viability, T/C (second compound 0.1 µM, first compound 1 µM) was 79.6%, the viability, T/C (second compound 0.1 µM, first compound 3.16 µM) was 85.1% and the viability, T/C (second compound 0.1 µM, first compound 10 µM) was 83.5%. It also gave a viability, T/C [9] of 75.3%, a viability, T/C [10] of 73.5% and a viability, T/C (second compound 0.316 µM, first compound 0.316 µM) of 73.9%. The viability, T/C (second compound 0.316 µM, first compound 1 µM) was 72.5%, the viability, T/C (second compound 0.316 µM, first compound 3.16 µM) was 63% and the viability, T/C (second compound 0.316 µM, first compound 10 µM) was 68.4%. For the same compound, the viability, T/C [11] was 67%, the viability, T/C [12] was 64.3% and the viability, T/C (second compound 1 µM, first compound 0.316 µM) was 64.2%. For the same compound, the viability, T/C (second compound 1 µM, first compound 1 µM) was 62%, the viability, T/C (second compound 1 µM, first compound 3.16 µM) was 69.4% and the viability, T/C (second compound 1 µM, first compound 10 µM) was 50.6%.
